Experimental findings from patent publication US20230113037A1 (Bayer Aktiengesellschaft, priority 2019, published 2023) are described below.

Assay [1] concerns the target T1, AHR (Homo sapiens, UniProt P35869).
T1 construct: U87 MG glioblastoma cells (ATCC #HTB-14) endogenously expressing AHR; endogenous in cells; host or cells: U87 MG glioblastoma cells (ATCC #HTB-14)
T1 sequence (P35869 11-848): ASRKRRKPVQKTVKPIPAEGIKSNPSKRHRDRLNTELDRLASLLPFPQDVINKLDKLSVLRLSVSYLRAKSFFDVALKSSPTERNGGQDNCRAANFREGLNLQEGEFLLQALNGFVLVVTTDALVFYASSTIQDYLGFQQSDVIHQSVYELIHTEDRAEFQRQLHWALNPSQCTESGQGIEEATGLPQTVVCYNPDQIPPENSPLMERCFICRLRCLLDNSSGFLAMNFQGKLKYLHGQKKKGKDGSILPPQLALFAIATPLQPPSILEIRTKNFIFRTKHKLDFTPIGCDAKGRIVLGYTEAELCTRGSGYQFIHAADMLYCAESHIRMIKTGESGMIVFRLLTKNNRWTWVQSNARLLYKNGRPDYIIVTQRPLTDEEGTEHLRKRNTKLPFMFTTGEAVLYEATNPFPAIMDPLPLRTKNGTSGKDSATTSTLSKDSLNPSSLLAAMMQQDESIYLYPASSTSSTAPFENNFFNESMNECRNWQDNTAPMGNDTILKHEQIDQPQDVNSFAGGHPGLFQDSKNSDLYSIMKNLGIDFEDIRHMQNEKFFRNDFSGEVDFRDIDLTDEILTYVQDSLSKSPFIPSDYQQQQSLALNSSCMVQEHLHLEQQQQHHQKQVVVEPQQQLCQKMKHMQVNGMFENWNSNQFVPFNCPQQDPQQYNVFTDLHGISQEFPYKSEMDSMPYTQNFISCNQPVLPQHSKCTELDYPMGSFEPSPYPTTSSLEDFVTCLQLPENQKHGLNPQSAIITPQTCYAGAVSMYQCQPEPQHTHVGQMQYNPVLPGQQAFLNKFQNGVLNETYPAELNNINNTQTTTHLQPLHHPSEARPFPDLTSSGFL
The experiment in a line: In vitro assay 1: antagonism in human cell line (AHR transactivation, firefly luciferase reporter, kynurenic acid prestimulated). Type of assay: cell-based. Particulars: AHR Antagonism Human IC50 [M]. In a few lines: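 Antagonism measured as loss of kynurenic acid-driven firefly luciferase from DRE reporter in stably transfected U87 MG cells; constitutive Renilla signal monitors cytotoxicity. Positive/negative control normalization, staurosporine 5 μM with 150 μM kynurenic acid as inhibition control; replicates given as mean or median.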

The target of assay [2] is T2, AHR (Mus musculus, UniProt P30561).
T2 sequence (P30561 1-848 P471L/N533S/M589L): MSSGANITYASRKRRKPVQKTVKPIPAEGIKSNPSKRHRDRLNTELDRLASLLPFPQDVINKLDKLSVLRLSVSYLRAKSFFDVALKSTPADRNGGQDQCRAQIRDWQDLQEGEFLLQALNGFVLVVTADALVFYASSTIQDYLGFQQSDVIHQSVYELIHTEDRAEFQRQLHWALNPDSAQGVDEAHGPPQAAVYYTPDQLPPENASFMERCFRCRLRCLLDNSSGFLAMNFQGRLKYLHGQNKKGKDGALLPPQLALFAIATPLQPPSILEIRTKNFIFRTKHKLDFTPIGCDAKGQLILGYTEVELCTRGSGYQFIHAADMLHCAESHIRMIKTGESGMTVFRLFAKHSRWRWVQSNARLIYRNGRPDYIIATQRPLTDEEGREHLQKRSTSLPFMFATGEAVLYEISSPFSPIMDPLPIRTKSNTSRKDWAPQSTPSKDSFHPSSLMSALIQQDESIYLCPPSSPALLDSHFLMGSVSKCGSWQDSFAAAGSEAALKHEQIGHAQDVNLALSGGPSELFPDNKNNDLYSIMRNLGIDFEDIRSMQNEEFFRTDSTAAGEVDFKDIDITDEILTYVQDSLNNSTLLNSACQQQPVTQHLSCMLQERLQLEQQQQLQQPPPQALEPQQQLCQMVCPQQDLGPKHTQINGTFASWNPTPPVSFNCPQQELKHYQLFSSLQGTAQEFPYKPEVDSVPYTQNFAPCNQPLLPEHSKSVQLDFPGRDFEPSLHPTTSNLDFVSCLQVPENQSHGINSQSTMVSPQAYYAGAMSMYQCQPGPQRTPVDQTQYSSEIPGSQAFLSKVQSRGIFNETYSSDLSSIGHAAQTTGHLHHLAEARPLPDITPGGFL
Kind of assay: In vitro assay 3: antagonism in mouse cell line (AHR transactivation, firefly luciferase reporter, kynurenic acid prestimulated). In kind it is cell-based. Particulars: 200 μM kynurenic acid, 20 hours, read-out: AHR Antagonism Mouse IC50. In a few lines: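 Kynurenic acid-prestimulated mouse reporter cells; stable AHR-inducible firefly luc construct with DRE sites in promoter. No-agonist wells = positive inhibition ctrl. Luminescence normalized to pos/neg ctrls; n>1 reported as mean or median.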

Setting [3] is: Hepa 1c1c7 cells, firefly luciferase reporter.

Each structure is given as a SMILES string. Like-named read-outs stand apart in the source and are kept apart here.

Consider `Cc1ccccc1-c1nc2c3ccccc3nc(NC3CNCCNC3=O)n2n1` (stereo not shown) [Example 45, 6-{[2-(2-methylphenyl)[1,2,4]triazolo[1,5-c]quinazolin-5-yl]amino}-1,4-diazepan-5-one], for which the half-inhibitory concentration (IC50) on AHR [1] turned out to be 1.19e-08 M; on AHR [2] (mouse Hepa 1c1c7 cells) it was 14.5 nM.
Consider `COc1ccc(-c2nc3c4cccc(Br)c4nc(N[C@H](C)C(=O)N4C[C@H]5C[C@@H]4CO5)n3n2)cc1` [Example 899, (2R)-2-{[7-bromo-2-(4-methoxyphenyl)[1,2,4]triazolo[1,5-c]quinazolin-5-yl]amino}-1-[(1R,4R)-2-oxa-5-azabicyclo[2.2.1]heptan-5-yl]propan-1-one], for which the IC50 against AHR [1] (firefly luciferase reporter) is 1.12e-09 M; at AHR [2] (setting [3]), 0.885 nM.
`CC[C@@H](Nc1nc2ccccc2c2nc(-c3ccc(S(C)(=O)=O)cc3)nn12)C(N)=O` [Example 376, (2R)-2-({2-[4-(methanesulfonyl)phenyl][1,2,4]triazolo[1,5-c]quinazolin-5-yl}amino)butanamide]: the values for the IC50 on AHR [1] and on AHR [2] (mouse Hepa 1c1c7 cells) were 1.61e-08 M and 4.93 nM, respectively.
On to `O=C1NCCCC[C@H]1Nc1nc2ccc(F)cc2c2nc(-c3ccccc3F)nn12` [Example 234, (3R)-3-{[9-fluoro-2-(2-fluorophenyl)[1,2,4]triazolo[1,5-c]quinazolin-5-yl]amino}azepan-2-one], for which the results for the half-inhibitory concentration (IC50) against AHR [1] and on AHR [2] (mouse Hepa 1c1c7 cells) were 1.7e-09 M and 1.4 nM, respectively.
Regarding `Cc1ncc(-c2nc3c4ccccc4nc(N[C@@H]4CCCCNC4=O)n3n2)cc1F` [Example 641, (3R)-3-{[2-(5-fluoro-6-methylpyridin-3-yl)[1,2,4]triazolo[1,5-c]quinazolin-5-yl]amino}azepan-2-one], the half-inhibitory concentration (IC50) came to 6.85e-09 M against AHR [1] and 2.46 nM at AHR [2] (mouse Hepa 1c1c7 cells).
Consider `COc1ccc(-c2nc3c4c(OC)cccc4nc(N[C@@H]4CNCCNC4=O)n3n2)cc1` [Example 291, (6R)-6-{[10-methoxy-2-(4-methoxyphenyl)[1,2,4]triazolo[1,5-c]quinazolin-5-yl]amino}-1,4-diazepan-5-one], for which the IC50 against AHR [1] came to 2.65e-06 M; on AHR [2] (mouse Hepa 1c1c7 cells), 2680 nM.
On to `COc1cccc(-c2nc3c4ccccc4nc(N[C@H](CC(C)C)C(N)=O)n3n2)c1` [Example 82, N^2-[2-(3-methoxyphenyl)[1,2,4]triazolo[1,5-c]quinazolin-5-yl]-D-leucinamide], for which the half-maximal inhibitory concentration (IC50) at AHR [1] was 8.87e-09 M; at AHR [2] (mouse Hepa 1c1c7 cells) it was 12.9 nM.
For the compound `Cc1ccccc1-c1nc2c3ccccc3nc(NC3CCNC3=O)n2n1` (stereo not shown) [Example 43, 3-{[2-(2-methylphenyl)[1,2,4]triazolo[1,5-c]quinazolin-5-yl]amino}pyrrolidin-2-one], the figures for the half-maximal inhibitory concentration (IC50) on AHR [1] and on AHR [2] (mouse Hepa 1c1c7 cells) were 8.65e-09 M and 19.8 nM, respectively.
On to `O=C1NCCCC[C@H]1Nc1nc2ccccc2c2nc(-c3c[nH]nc3C(F)(F)F)nn12` [Example 604, (3R)-3-({2-[3-(trifluoromethyl)-1H-pyrazol-4-yl][1,2,4]triazolo[1,5-c]quinazolin-5-yl}amino)azepan-2-one], for which the half-maximal inhibitory concentration (IC50) came out at 1.33e-07 M against AHR [1] and 347 nM on AHR [2] (mouse Hepa 1c1c7 cells).
For `O=C1NCC[C@H]1Nc1nc2ccccc2c2nc(-c3ccsc3)nn12` [Example 342, (3R)-3-{[2-(thiophen-3-yl)[1,2,4]triazolo[1,5-c]quinazolin-5-yl]amino}pyrrolidin-2-one], the 50% inhibitory concentration (IC50) against AHR [1] turned out to be 2.21e-07 M; at AHR [2] (mouse Hepa 1c1c7 cells) it was 175 nM.
As for `O=C1NCCCC[C@H]1Nc1nc2ccccc2c2nc(-c3cc(Br)ccc3OC(F)(F)F)nn12` [Example 505, (3R)-3-({2-[5-bromo-2-(trifluoromethoxy)phenyl][1,2,4]triazolo[1,5-c]quinazolin-5-yl}amino)azepan-2-one], the figures for the half-inhibitory concentration (IC50) at AHR [1] and at AHR [2] (mouse Hepa 1c1c7 cells) were greater than 2e-05 M and 50.7 nM, respectively.
With `O=C1NCCNC[C@H]1Nc1nc2ccccc2c2nc(-c3ccc(Br)o3)nn12` [Example 412, (6R)-6-{[2-(5-bromofuran-2-yl)[1,2,4]triazolo[1,5-c]quinazolin-5-yl]amino}-1,4-diazepan-5-one], the figures for the half-maximal inhibitory concentration (IC50) on AHR [1] and at AHR [2] (mouse Hepa 1c1c7 cells) were 8.37e-08 M and 236 nM, respectively.
As to `Cc1cc(C(F)F)c2nc(N[C@@H]3CCCCNC3=O)n3nc(-c4cnn(C)c4)nc3c2c1` [Example 406, (3R)-3-{[7-(difluoromethyl)-9-methyl-2-(1-methyl-1H-pyrazol-4-yl)[1,2,4]triazolo[1,5-c]quinazolin-5-yl]amino}azepan-2-one], the half-inhibitory concentration (IC50) came out at 1.01e-07 M at AHR [1] and 7750 nM on AHR [2] (mouse Hepa 1c1c7 cells).
`CCn1cc(-c2nc3c4cccc(Br)c4nc(N[C@@H]4CCCCNC4=O)n3n2)cn1` [Example 831, (3R)-3-{[7-bromo-2-(1-ethyl-1H-pyrazol-4-yl)[1,2,4]triazolo[1,5-c]quinazolin-5-yl]amino}azepan-2-one]: the half-maximal inhibitory concentration (IC50) was determined as 8.88e-10 M on AHR [1] (firefly luciferase reporter) and 1.54 nM on AHR [2] (setting [3]).
On to `C[C@@H](Nc1nc2ccccc2c2nc(-c3ccc(S(C)(=O)=O)cc3)nn12)C(=O)NCCN(C)C` [Example 774, N-[2-(dimethylamino)ethyl]-N^2-{2-[4-(methanesulfonyl)phenyl][1,2,4]triazolo[1,5-c]quinazolin-5-yl}-D-alaninamide], for which the concentration for half-maximal inhibition (IC50) turned out to be 2.26e-06 M against AHR [1] and 555 nM on AHR [2] (mouse Hepa 1c1c7 cells).
On to `Cn1cc(-c2nc3c4c(C(F)(F)F)cccc4nc(N[C@@H]4CCCCNC4=O)n3n2)cn1` [Example 173, (3R)-3-{[2-(1-methyl-1H-pyrazol-4-yl)-10-(trifluoromethyl)[1,2,4]triazolo[1,5-c]quinazolin-5-yl]amino}azepan-2-one], for which the IC50 against AHR [1] is 7.21e-08 M; on AHR [2] (mouse Hepa 1c1c7 cells), 112 nM.
`CC[C@@H](Nc1nc2ccccc2c2nc(-c3cccc(OC)c3)nn12)C(N)=O` [Example 88, (2R)-2-{[2-(3-methoxyphenyl)[1,2,4]triazolo[1,5-c]quinazolin-5-yl]amino}butanamide]: the IC50 at AHR [1] was found to be 2.11e-09 M; at AHR [2] (mouse Hepa 1c1c7 cells), 0.437 nM.
For `COc1ccc(-c2nc3c4cccc(C5(C(F)(F)F)CC5)c4nc(N[C@@H]4CNCCNC4=O)n3n2)cc1` [Example 431, (6R)-6-({2-(4-methoxyphenyl)-7-[1-(trifluoromethyl)cyclopropyl][1,2,4]triazolo[1,5-c]quinazolin-5-yl}amino)-1,4-diazepan-5-one], the results for the concentration for half-maximal inhibition (IC50) on AHR [1] and at AHR [2] (mouse Hepa 1c1c7 cells) were 1.43e-08 M and 60.6 nM, respectively.
As for `CC[C@H](Nc1nc2c(Br)cccc2c2nc(-c3ccc(Cl)cc3OC(F)(F)F)nn12)C(N)=O` [Example 574, (2S)-2-({7-bromo-2-[4-chloro-2-(trifluoromethoxy)phenyl][1,2,4]triazolo[1,5-c]quinazolin-5-yl}amino)butanamide], the results for the half-maximal inhibitory concentration (IC50) against AHR [1] and on AHR [2] (mouse Hepa 1c1c7 cells) were 5e-09 M and 1.07 nM, respectively.
Consider `Cn1cc(-c2nc3c4cccc(S(C)(=O)=O)c4nc(N[C@@H]4CCCCNC4=O)n3n2)cn1` [Example 858, (3R)-3-{[7-(methanesulfonyl)-2-(1-methyl-1H-pyrazol-4-yl)[1,2,4]triazolo[1,5-c]quinazolin-5-yl]amino}azepan-2-one], for which the figures for the IC50 against AHR [1] (firefly luciferase reporter) and at AHR [2] (setting [3]) were 1.07e-07 M and 1560 nM, respectively.
